Measurements as given in BindingDB's records for doi:10.1021/cb4007562 (University of Konstanz, 2014).

What was measured:
DNA polymerase lambda = target: T1, DNA polymerase lambda (Homo sapiens, UniProt Q9UGP5); test: DNA Pol λ PEX Assay; settings: pH 7.5
T1 sequence (Q9UGP5 whole entry): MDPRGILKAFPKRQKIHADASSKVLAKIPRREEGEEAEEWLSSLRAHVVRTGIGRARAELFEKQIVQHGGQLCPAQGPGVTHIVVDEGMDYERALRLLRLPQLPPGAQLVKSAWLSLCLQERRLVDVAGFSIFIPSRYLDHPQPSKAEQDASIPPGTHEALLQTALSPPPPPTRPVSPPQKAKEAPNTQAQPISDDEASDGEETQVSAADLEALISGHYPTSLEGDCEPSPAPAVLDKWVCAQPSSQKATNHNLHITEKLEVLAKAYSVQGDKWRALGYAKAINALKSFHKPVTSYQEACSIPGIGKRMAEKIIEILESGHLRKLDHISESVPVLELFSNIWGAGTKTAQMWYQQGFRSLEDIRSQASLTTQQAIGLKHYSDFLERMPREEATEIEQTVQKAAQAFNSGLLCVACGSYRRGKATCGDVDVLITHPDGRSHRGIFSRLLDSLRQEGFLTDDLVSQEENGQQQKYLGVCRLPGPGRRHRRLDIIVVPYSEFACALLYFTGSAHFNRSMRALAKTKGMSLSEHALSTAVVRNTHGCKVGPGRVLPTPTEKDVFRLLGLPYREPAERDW
Protocol: Pol λ reactions were made in a final volume of 20uL containing 50mM Tris-HCl pH 7.5, 1.5mM MgCl2, 5% (v/v) glycerol, 1mM DTT, 250nM purified recombinant pol λ, 150nM radioactive-labled primer F20H, 225nM template F33A, 0.1mg/mL BSA, 1uL compound solution with variable concentrations in DMSO (1uL DMSO for the solvent control). 5uL dNTP solution (15uM final) was added to initiate the reactions and positive controls. Reactions and controls were incubated for 30 min at 37 degrees Celsius and subsequently quenched using 45uL PAGE loading solution (80% (v/v) formamide, 20mM EDTA, 0.05% (w/v) bromophenol blue, 0.05% (w/v) xylene cyanol) per well. The reaction mixture was denatured for 5 min at 95 degrees Celsius and analyzed by 12% PAGE containing 8M urea.

DNA polymerase beta = DNA polymerase beta (Homo sapiens, UniProt P06746); test: DNA Pol β PEX Assay; settings: pH 7.9
Protocol: Pol β reactions were made in a final volume of 20uL containing 50mM Tris-HCl pH 7.9, 20mM KCl, 5% (v/v) glycerol, 1mM DTT, 2mM MnCl2, 250nM purified recombinant pol β, 150nM radioactive-labeled primer F20H, 225nM template F33A, 0.1mg/mL BSA, 1uL compound solution with various concentrations in DMSO (1uL DMSO for the solvent control). 5uL dNTP (15uM final) was added to initiate the reactions and positive controls. Reactions and controls were incubated for 30 min at 37 degrees Celsius and subsequently quenched using 45uL PAGE loading solution (80% (v/v) formamide, 20mM EDTA, 0.05% (w/v) bromophenol blue, 0.05% (w/v) xylene cyanol) per well. The reaction mixture was denatured for 5 min at 95 degrees Celsius and analyzed by 12% PAGE containing 8M urea.

Row | IC50 (DNA polymerase lambda) [µM] | IC50 (DNA polymerase beta) [µM] | Compound
1 | < 10 | < 50 | Cc1ccccc1Sc1ccc(C=C2SC(S)=NC2=O)cc1C(F)(F)F [(Z)-2-Thioxo-5-(4-(o-tolylthio)-3-(trifluoromethyl)benzylidene)thiazolidin-4-one 30]
2 | < 10 | 50 | Cc1ccccc1Sc1ccc(C=C2SC(S)=NC2=O)cc1F [(Z)-5-(3-Fluoro-4-(o-tolylthio)benzylidene)-2-thioxothiazolidin-4-one 29]
3 | 6 | 29.8 | Cc1cccc(Sc2ccc(C=C3SC(S)=NC3=O)cc2[N+](=O)[O-])c1 [(Z)-5-(3-Nitro-4-(m-tolylthio)benzylidene)-2-thioxothiazolidin-4-one 22]
4 | 3.9 | 18.2 | Cc1ccccc1Sc1ccc(C=C2SC(S)=NC2=O)cc1[N+](=O)[O-] [(Z)-5-(3-Nitro-4-(o-tolylthio)benzylidene)-2-thioxothiazolidin-4-one 23]
5 | < 10 | > 50 | Cc1ccc(Sc2ccc(C=C3SC(S)=NC3=O)cc2[N+](=O)[O-])cc1F [(Z)-5-(4-((3-Fluoro-4-methylphenyl)thio)-3-nitrobenzylidene)-2-thioxothiazolidin-4-one 20]
6 | < 10 | < 50 | CCc1ccc(Sc2ccc(C=C3SC(S)=NC3=O)cc2[N+](=O)[O-])cc1 [(Z)-5-(4-((4-Ethylphenyl)thio)-3-nitrobenzylidene)-2-thioxothiazolidin-4-one 17]
7 | < 10 | > 50 | O=C1N=C(S)SC1=Cc1ccc(Sc2ccc3ccccc3c2)c([N+](=O)[O-])c1 [(Z)-5-(4-(Naphthalen-2-ylthio)-3-nitrobenzylidene)-2-thioxothiazolidin-4-one 25]
8 | 5.9 | 64.4 | Cc1ccc(Sc2ccc(C=C3SC(S)=NC3=O)cc2[N+](=O)[O-])cc1 [DNA polymerase inhibitor 1]

The remaining lines, values behind:

Row | Compound | IC50 (DNA polymerase lambda) [µM] | IC50 (DNA polymerase beta) [µM]
9 | Cc1ccccc1Sc1ccc(C=C2SC(S)=NC2=O)cc1 [23 (Z)-2-Thioxo-5-(4-(o-tolylthio)benzylidene)thiazolidin-4-one 28] | < 10 | 50
10 | Cc1ccc(Sc2ccc(C=C3SC(S)=NC3=O)cc2C(F)(F)F)cc1 [(Z)-2-Thioxo-5-(4-(p-tolylthio)-3-(trifluoromethyl)benzylidene)thiazolidin-4-one 15] | < 10 | 28.1
11 | Cc1ccc(Sc2ccc(C=C3SC(S)=NC3=O)cc2)cc1 [(Z)-2-Thioxo-5-(4-(p-tolylthio)benzylidene)thiazolidin-4-one 11] | < 10 | < 50
12 | C=C(c1ccc(Sc2ccc(C)cc2)c([N+](=O)[O-])c1)c1sc(S)nc1O [(Z)-5-(1-(3-Nitro-4-(p-tolylthio)phenyl)ethylidene)-2-thioxothiazolidin-4-one 8] | < 10 | < 50
13 | Cc1ccc(Sc2ccc(C=C3SC(S)=NC3=O)c(Sc3ccc(C)cc3)c2)cc1 [(Z)-5-(2,4-Bis(p-tolylthio)benzylidene)-2-thioxothiazolidin-4-one 31] | 4 | < 50
14 | Cc1ccc(Sc2ccc(C=C3SC(S)=NC3=O)cc2Br)cc1F [(Z)-5-(3-Bromo-4-((3-fluoro-4-methylphenyl)thio)benzylidene)-2-thioxothiazolidin-4-one 27] | 4 | > 50
15 | Cc1ccc(Sc2ccc(C=C3SC(S)=NC3=O)cc2Br)cc1 [(Z)-5-(3-Bromo-4-(p-tolylthio)benzylidene)-2-thioxothiazolidin-4-one 14] | < 10 | > 50
16 | Cc1ccc(Sc2ccc(C=C3SC(S)=NC3=O)cc2Cl)cc1 [(Z)-5-(3-Chloro-4-(p-tolylthio)benzylidene)-2-thioxothiazolidin-4-one 13] | 5.7 | > 50
17 | Cc1ccc(Sc2ccc(C=C3SC(S)=NC3=O)cc2F)cc1 [(Z)-5-(3-Fluoro-4-(p-tolylthio)benzylidene)-2-thioxothiazolidin-4-one 12] | < 10 | 38.7
18 | O=C1N=C(S)SC1=Cc1ccc(Sc2c(F)c(F)c(C(F)(F)F)c(F)c2F)c([N+](=O)[O-])c1 [(Z)-5-(3-Nitro-4-((2,3,5,6-tetrafluoro-4-(trifluoromethyl)phenyl)thio)benzylidene)-2-thioxothiazolidin-4-one 21] | < 10 | > 50
19 | O=C1N=C(S)SC1=Cc1ccc(Sc2ccc(OC(F)(F)F)cc2)c([N+](=O)[O-])c1 [(Z)-5-(3-Nitro-4-((4-(trifluoromethoxy)phenyl)thio)benzylidene)-2-thioxothiazolidin-4-one 19] | < 20 | > 50
20 | O=C1N=C(S)SC1=Cc1ccc(Sc2ccc(C(F)(F)F)cc2)c([N+](=O)[O-])c1 [(Z)-5-(3-Nitro-4-((4-(trifluoromethyl)phenyl)thio)benzylidene)-2-thioxothiazolidin-4-one 18] | < 10 | > 50
21 | Cc1ccc(Sc2ccc(C=C3SC(O)=NC3=O)cc2[N+](=O)[O-])cc1 [(Z)-5-(3-Nitro-4-(p-tolylthio)benzylidene)thiazolidine-2,4-dione 3] | < 10 | > 50
22 | Cc1ccc(S(=O)(=O)c2ccc(C=C3SC(S)=NC3=O)cc2[N+](=O)[O-])cc1 [(Z)-5-(3-Nitro-4-tosylbenzylidene)-2-thioxothiazolidin-4-one 10] | < 20 | 
23 | O=C1N=C(S)SC1=Cc1ccc(SC2CCCCC2)c([N+](=O)[O-])c1 [(Z)-5-(4-(Cyclohexylthio)-3-nitrobenzylidene)-2-thioxothiazolidin-4-one 2] | < 10 | < 50
24 | O=C1N=C(S)SC1=Cc1ccc(SC2CCCC2)c([N+](=O)[O-])c1 [(Z)-5-(4-(Cyclopentylthio)-3-nitrobenzylidene)-2-thioxothiazolidin-4-one 26] | < 20 | > 50
25 | Cc1ccc(Sc2sc(C=C3SC(S)=NC3=O)cc2Br)cc1 [(Z)-5-((4-Bromo-5-(p-tolylthio)thiophen-2-yl)methylene)-2-thioxothiazolidin-4-one 32] | < 10 | < 50
26 | Cc1ccc(Sc2ccc(C=C3SC(S)=NC3=O)cc2C#N)cc1 [(Z)-5-((4-Oxo-2-thioxothiazolidin-5-ylidene)methyl)-2-(ptolylthio) benzonitrile 16] | < 10 | 
